# In patent US9695155B2, “Herbicidal substituted pyrimidinyloxy benzene compounds” (E. I. DU PONT DE NEMOURS AND COMPANY, priority 2013, dated 2017):
# Assays:
# Heteranthera limosa = assay: Test B flooded paddy test; type: in vivo; conditions: Flood, 250 g ai/ha, 0 to 100 scale where 0 is no effect and 100 is complete control
# Method in brief: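 Plants at 2-leaf stage; pots flooded to 3 cm above soil and compound applied directly into paddy water, depth held throughout. After 13 to 15 days in greenhouse, visual rating versus controls on 0 (no effect) to 100 (complete control) scale.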
# morningglory [1] = assay: Test C postemergence; type: in vivo, Ipomoea coccinea
# Method in brief: (§1)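 Seeds were sown in loam–sand blend and sprayed preemergence, while plants at 1- to 4-leaf stage (2–18 cm) in peat-based medium received postemergence sprays; test chemicals were formulated in a non-phytotoxic solvent with surfactant. After 13–15 days in a greenhouse, injury was rated visually against controls, 0 (no effect) to 100 (complete control).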
# corn [2] = assay: Test C postemergence; type: in vivo, Zea mays
# Method in brief: as §1
# pigweed = assay: Test C postemergence; type: in vivo, Amaranthus retroflexus
# Method in brief: as §1
# barnyardgrass = assay: Test A preemergence; type: in vivo, Echinochloa crus-galli
# Method in brief: (§2)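 Visual injury scored 0–100 (100 = complete control) against untreated controls about 10 days after treatment in a greenhouse. Test chemicals, formulated with surfactant in non-phytotoxic solvent, were sprayed on soil preemergence or on 2-10 cm, one- to two-leaf plants postemergence.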
# large (Lg) crabgrass = assay: Test A preemergence; type: in vivo, Digitaria sanguinalis
# Method in brief: as §2
# wheat = assay: Test A preemergence; type: in vivo, Triticum aestivum
# Method in brief: as §2
# corn [3] = assay: Test A postemergence; type: in vivo, Zea mays
# Method in brief: as §2
# kochia = assay: Test C postemergence; type: in vivo, Kochia scoparia
# Method in brief: as §1
# wild oat = assay: Test C postemergence; type: in vivo, Avena fatua
# Method in brief: as §1
# morningglory [4] = assay: Test A postemergence; type: in vivo, Ipomoea spp.
# Method in brief: as §2
# giant foxtail = assay: Test A postemergence; type: in vivo, Setaria faberii
# Method in brief: as §2
# [5] = Postemergence, 31 g ai/ha, scale 0 to 100 (0 no effect, 100 complete control), 13 to 15 days
# [6] = Postemergence, 62 g ai/ha, scale 0 to 100 (0 no effect, 100 complete control)
# [7] = 16 g ai/ha, postemergence, visual rating, scale 0 to 100 (0 no effect, 100 complete control), 13 to 15 days
# [8] = 1000 g ai/ha, 0 to 100 scale, 0 no effect, 100 complete control
# [9] = 31 g ai/ha, postemergence, visual rating, scale 0 to 100 (0 no effect, 100 complete control), 13 to 15 days
compound,measurement,setting,value
Clc1cnc(Oc2cccc(Br)c2-n2cc(Br)cn2)nc1 [Compound 65],"Plant response rating, Ducksalad",Heteranthera limosa,95
same,"Plant response rating (0 to 100), Morningglory","morningglory [1]; 125 g ai/ha, postemergence",95
same,"Plant response rating, Morningglory",morningglory [1]; [5],30
same,"Plant response rating, Morningglory",morningglory [1]; [6],65
same,Corn plant response rating,corn [2]; [7],5
same,"Plant response rating (0 to 100), Corn","corn [2]; 125 g ai/ha, postemergence",10
same,"Plant response rating, Corn",corn [2]; [5],10
same,"Plant response rating, Corn",corn [2]; [6],10
same,"Plant response rating (0 to 100), Pigweed","pigweed; 125 g ai/ha, postemergence",98
same,"Plant response rating, Pigweed",pigweed; [5],90
same,"Plant response rating, Pigweed",pigweed; [6],95
same,"Plant response rating, Barnyardgrass",barnyardgrass; [8],100
same,"Plant response rating, Crabgrass, Large",large (Lg) crabgrass; [8],100
same,Wheat plant response rating,"wheat; 1000 g ai/ha, 0 to 100 scale, 0 no effect, 100 complete control, approx. 10 days",30
same,"Plant response rating, Corn",corn [3]; [8],70
same,Kochia plant response rating,kochia; [7],90
same,"Plant response rating (0 to 100), Kochia","kochia; 125 g ai/ha, postemergence",98
same,"Plant response rating, Kochia",kochia; [5],90
same,"Plant response rating, Kochia",kochia; [6],98
same,"Plant response rating (0 to 100), Oat, Wild","wild oat; 125 g ai/ha, postemergence",5
same,"Plant response rating, Oat, Wild",wild oat; [5],0
same,"Plant response rating, Oat, Wild",wild oat; [6],5
same,"Plant response rating, Morningglory",morningglory [4]; [8],100
same,"Plant response rating, Foxtail, Giant",giant foxtail; [8],100
"Fc1cccc(Oc2ncc(Cl)cn2)c1-n1cc(Br)cn1 [Compound 178, 2-[2-(4-bromo-1H-pyrazol-1-yl)-3-fluorophenoxy]-5-chloropyrimidine]",pest or weed control at 250 g/ha,"Heteranthera limosa; Heteranthera limosa, read-out: Plant response rating, Ducksalad",0%
same,Morningglory plant response rating,morningglory [1]; [9],70
same,pest or weed control at 16 g/ha,"morningglory [1]; Ipomoea, post-emergence, 16 g ai/ha, postemergence, 0 is no effect, 100 is complete control, read-out: Plant response rating (0 to 100), Morningglory",10%
same,pest or weed control at 125 g/ha,"morningglory [1]; Ipomoea, post-emergence, 125 g ai/ha, postemergence, visual rating, scale 0 to 100 (0 no effect, 100 complete control), read-out: Plant response rating, Morningglory",65%
same,pest or weed control at 62 g/ha,"morningglory [1]; Ipomoea, post-emergence, Postemergence, 62 g ai/ha, scale 0 to 100 (0 no effect, 100 complete control), read-out: Plant response rating, Morningglory",85%
same,plant injury at 16 g/ha,"corn [2]; Zea mays, post-emergence, 16 g ai/ha, postemergence, 0 is no effect, 100 is complete control, read-out: Plant response rating (0 to 100), Corn",5%
same,plant injury at 31 g/ha,"corn [2]; Zea mays, post-emergence, 31 g ai/ha, postemergence, visual rating, scale 0 to 100 (0 no effect, 100 complete control), 13 to 15 days, read-out: Corn plant response rating",10%
same,"Corn plant response rating (crop injury, 0 = no effect, 100 = complete kill) at 125 g/ha","corn [2]; Zea mays, post-emergence, 125 g ai/ha, postemergence, visual rating, scale 0 to 100 (0 no effect, 100 complete control)",10%
same,"Corn plant response rating (crop injury, 0 = no effect, 100 = complete kill) at 62 g/ha","corn [2]; Zea mays, post-emergence, Postemergence, 62 g ai/ha, scale 0 to 100 (0 no effect, 100 complete control)",10%
same,Pigweed plant response rating,pigweed; [9],85
same,pest or weed control at 16 g/ha,"pigweed; Amaranthus retroflexus, post-emergence, 16 g ai/ha, postemergence, 0 is no effect, 100 is complete control, read-out: Plant response rating (0 to 100), Pigweed",80%
same,pest or weed control at 125 g/ha,"pigweed; Amaranthus retroflexus, post-emergence, 125 g ai/ha, postemergence, visual rating, scale 0 to 100 (0 no effect, 100 complete control), read-out: Plant response rating, Pigweed",98%
same,pest or weed control at 62 g/ha,"pigweed; Amaranthus retroflexus, post-emergence, Postemergence, 62 g ai/ha, scale 0 to 100 (0 no effect, 100 complete control), read-out: Plant response rating, Pigweed",95%
same,pest or weed control at 125 g/ha,"barnyardgrass; Echinochloa crus-galli, pre-emergence, 240 h, 125 g ai/ha, 0 to 100 scale where 0 is no effect and 100 is complete control, read-out: Plant response rating, Barnyardgrass",90%
same,pest or weed control at 500 g/ha,"barnyardgrass; Echinochloa crus-galli, pre-emergence, 240 h, 500 g ai/ha, 0 to 100 scale where 0 is no effect and 100 is complete control, read-out: Barnyardgrass plant response rating",100%
same,pest or weed control at 125 g/ha,"large (Lg) crabgrass; Digitaria sanguinalis, pre-emergence, 240 h, 125 g ai/ha, 0 to 100 scale where 0 is no effect and 100 is complete control, read-out: Plant response rating, Crabgrass, Large",100%
same,pest or weed control at 500 g/ha,"large (Lg) crabgrass; Digitaria sanguinalis, pre-emergence, 240 h, 500 g ai/ha, 0 to 100 scale where 0 is no effect and 100 is complete control, read-out: Crabgrass, Large plant response rating",100%
same,Wheat plant response rating (0 to 100 scale),wheat; 125 g ai/ha,0
same,plant injury at 500 g/ha,"wheat; Triticum aestivum, pre-emergence, 240 h, 500 g ai/ha, 0 to 100 scale where 0 is no effect and 100 is complete control, read-out: Wheat plant response rating",40%
same,plant injury at 125 g/ha,"corn [3]; Zea mays, post-emergence, 240 h, 125 g ai/ha, 0 to 100 scale where 0 is no effect and 100 is complete control, read-out: Corn plant response rating",30%
same,"Corn plant response rating (crop injury, 0 = no effect, 100 = complete kill) at 500 g/ha","corn [3]; Zea mays, post-emergence, 240 h, 500 g ai/ha, 0 to 100 scale where 0 is no effect and 100 is complete control",70%
same,pest or weed control at 16 g/ha,"kochia; Bassia scoparia, post-emergence, 16 g ai/ha, postemergence, 0 is no effect, 100 is complete control, read-out: Plant response rating (0 to 100), Kochia",60%
same,pest or weed control at 31 g/ha,"kochia; Bassia scoparia, post-emergence, 31 g ai/ha, postemergence, visual rating, scale 0 to 100 (0 no effect, 100 complete control), 13 to 15 days, read-out: Kochia plant response rating",90%
same,pest or weed control at 125 g/ha,"kochia; Bassia scoparia, post-emergence, 125 g ai/ha, postemergence, visual rating, scale 0 to 100 (0 no effect, 100 complete control), read-out: Plant response rating, Kochia",95%
same,pest or weed control at 62 g/ha,"kochia; Bassia scoparia, post-emergence, Postemergence, 62 g ai/ha, scale 0 to 100 (0 no effect, 100 complete control), read-out: Plant response rating, Kochia",95%
same,"Oat, Wild plant response rating",wild oat; [9],0
same,pest or weed control at 16 g/ha,"wild oat; Avena fatua, post-emergence, 16 g ai/ha, postemergence, 0 is no effect, 100 is complete control, read-out: Plant response rating (0 to 100), Oat, Wild",0%
same,pest or weed control at 125 g/ha,"wild oat; Avena fatua, post-emergence, 125 g ai/ha, postemergence, visual rating, scale 0 to 100 (0 no effect, 100 complete control), read-out: Plant response rating, Oat, Wild",30%
same,pest or weed control at 62 g/ha,"wild oat; Avena fatua, post-emergence, Postemergence, 62 g ai/ha, scale 0 to 100 (0 no effect, 100 complete control), read-out: Plant response rating, Oat, Wild",10%
same,Morningglory plant response rating,"morningglory [4]; 125 g ai/ha, 0 to 100 scale where 0 is no effect and 100 is complete control",70
same,pest or weed control at 500 g/ha,"morningglory [4]; Ipomoea, post-emergence, 240 h, 500 g ai/ha, 0 to 100 scale where 0 is no effect and 100 is complete control, read-out: Plant response rating, Morningglory",100%
same,pest or weed control at 125 g/ha,"giant foxtail; Setaria faberi, post-emergence, 240 h, 125 g ai/ha, 0 to 100 scale where 0 is no effect and 100 is complete control, read-out: Foxtail, Giant plant response rating",90%
same,pest or weed control at 500 g/ha,"giant foxtail; Setaria faberi, post-emergence, 240 h, 500 g ai/ha, 0 to 100 scale where 0 is no effect and 100 is complete control, read-out: Plant response rating, Foxtail, Giant",100%
